Laboratory results taken from patent publication US12577211B2, “Probenecid compounds for the treatment of inflammasome-mediated lung disease” (Bacainn Biotherapeutics, Ltd., priority 2020, dated 2026).

Legend:
NLRP1 [1] = test: NLRP1 (L18-MDP)-induced inflammasome activation in immortalized BMDMs, secreted IL-1β ELISA (Example 10); format: cell-based; details: 20, 100, 350 μM; L18-MDP 100 μg/mL, 16 hours
NLRP3 inflammasome = biological target: T1, NLRP3 inflammasome (Mus musculus, UniProt Q8R4B8); test: IL-1β secretion (ELISA) in LPS-primed iBMDMs stimulated with silica or nigericin; format: cell-based, murine; details: LPS 100 ng/mL primed iBMDMs; silica 250 μg/mL or nigericin 6 μM; compound 300, 150, 30, 3 μM
T1 construct: Immortalized wild-type C57BL/6 bone-marrow derived macrophages (iBMDMs); endogenous in cells; host or cells: immortalized wild-type C57BL/6 bone-marrow derived macrophages (iBMDMs), LPS-primed
Experimental: In vitro stimulation of murine macrophages. Immortalized wild-type C57BL/6 bone-marrow derived macrophages (iBMDMs) were grown in DMEM supplemented with 10% heat inactivated FBS and 2 mM glutamine. iBMDMs were seeded in 96-well plates 24 hours prior incubation with lipopolysaccharide (LPS; 100 ng/mL) for 3 hours. Cells were then incubated with a control probenecid compound (probenecid dissolved in DMSO (Prob/D), probenecid dissolved in PBS (Prob/P)) or one of the probenecid analogs of the present technology (BT032, BT132, BT133, BT134, BT135, BT136, BT137, BT138, BT139, or BT140) at concentrations of 300 μM, 150 μM, 30 μM, or 3 μM 1 hour prior to stimulation with NLRP3 inflammasome activators, silica (250 μg/mL) or nigericin (6 μM). After an additional 6 hours, cell supernatants were collected and levels of IL-1β were quantified by ELISA. These experiments were run in triplicate three times.

[2] = tested on: ASC specks (NLRP3 inflammasome complex); test: Nigericin-induced ASC speck formation in ASC-cerulean/NLRP3 macrophages; format: cell-based; details: 350 μM, 60 mins before nigericin 3 μM for 90 mins
AIM2 = biological target: T2, AIM2 (Mus musculus, UniProt Q91VJ1); test: AIM2 (poly dA:dT)-mediated inflammasome activation, secreted IL-1β ELISA in immortalized BMDMs; format: cell-based, murine; details: BT032 20, 100 μM
T2 sequence (Q91VJ1 1-354): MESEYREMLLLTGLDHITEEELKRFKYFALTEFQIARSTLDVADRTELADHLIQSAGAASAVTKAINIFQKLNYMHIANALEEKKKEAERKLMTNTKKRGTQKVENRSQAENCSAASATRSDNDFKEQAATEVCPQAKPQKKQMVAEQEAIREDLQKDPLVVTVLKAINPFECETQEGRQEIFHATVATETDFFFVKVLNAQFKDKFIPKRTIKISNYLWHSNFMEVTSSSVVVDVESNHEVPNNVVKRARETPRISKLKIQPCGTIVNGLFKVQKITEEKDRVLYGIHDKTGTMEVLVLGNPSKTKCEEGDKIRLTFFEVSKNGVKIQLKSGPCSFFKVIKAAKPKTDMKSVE

NLRP1 [3] = test: NLRP1-mediated inflammasome activity, secreted IL-1β ELISA in immortalized BMDMs (L18-MDP); format: cell-based, murine; details: for NLRP1 (L18-MDP)-induced inflammasome activation: BT032 20, 100 μM, MCC950 5 μM
NLRC4 = NLRC4 (Mus musculus, UniProt Q3UP24); test: NLRC4 (Flagellin)-mediated inflammasome activation, secreted IL-1β ELISA in immortalized BMDMs; format: cell-based, murine; details: BT032 20, 100 μM
NLRP1 [4] = biological target: T3, NLRP1 (Homo sapiens, UniProt Q9C000); test: poly I:C NLRP1 activation in primary human bronchial epithelial cells, secreted IL-1β ELISA; format: cell-based; details: 20, 100, 350 μM
T3 construct: Primary bronchial epithelial cells (PBEC) were obtained from bronchial brushings; endogenous in cells; host or cells: primary human bronchial epithelial cells (PBEC) from bronchial brushings
T3 sequence (Q9C000 1-1212 limits assumed): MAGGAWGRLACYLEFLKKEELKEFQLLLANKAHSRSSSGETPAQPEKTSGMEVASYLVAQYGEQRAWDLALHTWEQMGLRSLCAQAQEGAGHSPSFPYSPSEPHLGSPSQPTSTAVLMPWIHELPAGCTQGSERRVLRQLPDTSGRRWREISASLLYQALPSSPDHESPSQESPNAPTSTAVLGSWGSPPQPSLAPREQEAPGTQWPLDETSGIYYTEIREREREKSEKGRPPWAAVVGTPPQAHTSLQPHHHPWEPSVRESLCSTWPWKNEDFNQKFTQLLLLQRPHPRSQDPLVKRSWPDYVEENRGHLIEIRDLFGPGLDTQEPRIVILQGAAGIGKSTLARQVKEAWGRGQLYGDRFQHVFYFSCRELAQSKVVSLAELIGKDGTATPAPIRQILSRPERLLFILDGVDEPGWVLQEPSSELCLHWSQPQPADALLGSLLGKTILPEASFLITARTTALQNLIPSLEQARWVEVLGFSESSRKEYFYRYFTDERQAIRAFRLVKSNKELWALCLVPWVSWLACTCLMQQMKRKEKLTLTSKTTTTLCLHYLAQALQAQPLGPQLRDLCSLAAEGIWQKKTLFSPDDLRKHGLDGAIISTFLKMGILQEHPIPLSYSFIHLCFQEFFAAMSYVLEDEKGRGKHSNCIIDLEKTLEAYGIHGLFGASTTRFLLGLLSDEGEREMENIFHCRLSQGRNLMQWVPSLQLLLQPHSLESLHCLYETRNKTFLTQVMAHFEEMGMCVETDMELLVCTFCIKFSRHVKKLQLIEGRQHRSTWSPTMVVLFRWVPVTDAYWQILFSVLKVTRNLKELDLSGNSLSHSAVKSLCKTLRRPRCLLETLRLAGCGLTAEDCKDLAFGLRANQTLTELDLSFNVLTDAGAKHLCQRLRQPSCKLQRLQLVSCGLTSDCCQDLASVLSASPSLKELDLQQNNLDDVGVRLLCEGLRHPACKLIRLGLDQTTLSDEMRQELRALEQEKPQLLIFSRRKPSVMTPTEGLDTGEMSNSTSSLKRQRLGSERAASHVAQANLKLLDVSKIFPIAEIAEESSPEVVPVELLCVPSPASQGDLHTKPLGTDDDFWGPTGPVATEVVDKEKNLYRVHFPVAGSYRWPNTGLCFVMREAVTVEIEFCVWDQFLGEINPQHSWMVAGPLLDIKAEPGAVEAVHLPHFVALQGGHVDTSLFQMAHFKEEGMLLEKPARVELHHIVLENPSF
T3 sequence (Q9C000 1213-1473 limits assumed): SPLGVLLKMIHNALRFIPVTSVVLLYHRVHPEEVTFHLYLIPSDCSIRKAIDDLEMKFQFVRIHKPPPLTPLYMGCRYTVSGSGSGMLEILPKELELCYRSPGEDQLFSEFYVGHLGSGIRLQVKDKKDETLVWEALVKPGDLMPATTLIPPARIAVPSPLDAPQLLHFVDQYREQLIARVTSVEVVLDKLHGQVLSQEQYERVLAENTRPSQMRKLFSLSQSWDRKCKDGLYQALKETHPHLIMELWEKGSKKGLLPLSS
Experimental: Methods. Primary bronchial epithelial cells (PBEC) were obtained from bronchial brushings and cultured under submerged conditions on collagen-coated flasks in supplemented bronchial epithelial growth medium. PBECs were seeded at 2.5×10^5/ml cells in collagen-coated 96 well plates overnight.

NLRP3 = NLRP3 (Mus musculus, UniProt Q8R4B8); test: NLRP3-mediated inflammasome activity, secreted IL-1β ELISA in LPS-primed immortalized BMDMs (nigericin, MSU, silica)
[5] = tested on: HKx31 (H3N2) influenza A virus; format: in vivo, C57BL/6 mice
[6] = tested on: non-canonical inflammasome; test: Non-canonical inflammasome activity (LPS (B4)), secreted IL-1β ELISA in immortalized BMDMs; format: cell-based, murine; details: BT032 20, 100 μM

T1 sequence (Q8R4B8 whole entry): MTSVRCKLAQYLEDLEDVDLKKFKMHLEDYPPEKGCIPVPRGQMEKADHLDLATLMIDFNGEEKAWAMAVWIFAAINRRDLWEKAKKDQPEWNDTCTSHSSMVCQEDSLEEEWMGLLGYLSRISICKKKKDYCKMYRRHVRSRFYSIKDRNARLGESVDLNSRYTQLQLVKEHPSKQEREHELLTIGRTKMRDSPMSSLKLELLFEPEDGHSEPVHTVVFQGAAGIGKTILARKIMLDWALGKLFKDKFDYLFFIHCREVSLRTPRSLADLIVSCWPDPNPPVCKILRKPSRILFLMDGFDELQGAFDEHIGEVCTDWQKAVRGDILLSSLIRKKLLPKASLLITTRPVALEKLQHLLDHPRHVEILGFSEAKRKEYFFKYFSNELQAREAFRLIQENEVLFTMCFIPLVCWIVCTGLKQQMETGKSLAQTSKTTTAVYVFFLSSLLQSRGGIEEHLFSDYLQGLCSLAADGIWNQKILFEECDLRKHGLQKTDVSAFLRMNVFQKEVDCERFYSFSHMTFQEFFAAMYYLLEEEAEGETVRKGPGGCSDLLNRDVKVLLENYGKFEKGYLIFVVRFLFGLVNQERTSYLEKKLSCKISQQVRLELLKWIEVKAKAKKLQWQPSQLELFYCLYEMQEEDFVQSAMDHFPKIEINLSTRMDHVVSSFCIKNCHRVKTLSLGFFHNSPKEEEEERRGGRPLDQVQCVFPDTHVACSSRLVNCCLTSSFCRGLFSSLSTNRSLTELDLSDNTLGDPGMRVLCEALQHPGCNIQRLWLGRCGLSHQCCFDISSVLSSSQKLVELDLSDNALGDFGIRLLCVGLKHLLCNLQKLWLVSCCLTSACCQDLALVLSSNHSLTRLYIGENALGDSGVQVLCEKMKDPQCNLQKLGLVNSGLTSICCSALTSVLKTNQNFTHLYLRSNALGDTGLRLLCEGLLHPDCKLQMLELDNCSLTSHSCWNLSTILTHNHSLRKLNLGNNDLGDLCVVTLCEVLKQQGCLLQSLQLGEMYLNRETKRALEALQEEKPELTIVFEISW
NLRP3, sequence (Q8R4B8 whole entry): as above
NLRC4, sequence (Q3UP24 whole entry): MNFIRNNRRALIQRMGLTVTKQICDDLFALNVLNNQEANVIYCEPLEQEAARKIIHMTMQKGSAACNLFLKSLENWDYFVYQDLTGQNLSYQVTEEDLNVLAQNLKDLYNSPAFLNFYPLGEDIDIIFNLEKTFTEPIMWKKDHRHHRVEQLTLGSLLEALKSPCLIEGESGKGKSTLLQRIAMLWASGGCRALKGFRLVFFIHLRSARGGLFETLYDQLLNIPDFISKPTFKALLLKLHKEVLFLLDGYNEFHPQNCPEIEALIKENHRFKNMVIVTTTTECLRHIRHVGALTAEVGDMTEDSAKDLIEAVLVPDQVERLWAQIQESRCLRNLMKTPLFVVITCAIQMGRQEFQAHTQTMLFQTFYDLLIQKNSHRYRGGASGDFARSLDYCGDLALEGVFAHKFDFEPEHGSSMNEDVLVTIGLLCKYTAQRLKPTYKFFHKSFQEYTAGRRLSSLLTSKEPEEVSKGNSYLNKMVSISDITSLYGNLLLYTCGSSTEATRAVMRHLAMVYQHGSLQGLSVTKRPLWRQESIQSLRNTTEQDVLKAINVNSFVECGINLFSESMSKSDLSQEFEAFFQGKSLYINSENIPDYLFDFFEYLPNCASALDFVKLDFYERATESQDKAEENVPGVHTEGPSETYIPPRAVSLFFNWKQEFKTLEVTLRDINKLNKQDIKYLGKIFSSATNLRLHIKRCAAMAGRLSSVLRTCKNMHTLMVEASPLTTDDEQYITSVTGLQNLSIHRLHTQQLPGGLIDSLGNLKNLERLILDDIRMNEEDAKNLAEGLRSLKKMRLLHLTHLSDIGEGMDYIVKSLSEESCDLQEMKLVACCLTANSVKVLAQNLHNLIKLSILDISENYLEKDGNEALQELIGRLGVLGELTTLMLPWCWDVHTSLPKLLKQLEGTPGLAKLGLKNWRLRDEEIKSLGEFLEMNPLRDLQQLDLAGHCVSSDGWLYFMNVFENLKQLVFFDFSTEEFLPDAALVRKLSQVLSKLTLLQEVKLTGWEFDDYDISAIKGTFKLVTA

For `CCCN(CCC)S(=O)(=O)c1ccc(-c2nc(CCCC(=O)O)cs2)cc1` [BT136, 4-(2-(4-(N,N-dipropylsulfamoyl)phenyl)thiazol-4-yl)butanoic acid], the “NLRP1 (L18-MDP)-induced inflammasome activation (secreted IL-1β)” value (from here on “NLRP1 … (secreted IL-1β)”) (NLRP1 [1]) was “dose-dependently inhibited” and the “potency in reducing IL-1β secretion compared with control probenecid compounds” value (NLRP3 inflammasome) was “more potent than the control probenecid compounds”.
With `CCCN(CCC)S(=O)(=O)c1ccc(-c2ccc(CCCC(=O)O)cc2)cc1` [BT032, 4-(4′-(N,N-dipropylsulfamoyl)-[1,1′-biphenyl]-4-yl)butanoic acid] the “ASC specks in cells” value [2] was “substantially reduced ASC specks”, the “AIM2 (poly dA:dT)-mediated inflammasome activation” value (AIM2) was “no effect” and the “NLRP1 … (secreted IL-1β)” value (NLRP1 [1]) was “dose-dependently inhibited”. The “NLRP1 (L18-MDP)-induced inflammasome activation” value (NLRP1 [3]) was “dose-dependently inhibited”, the IC50 (NLRP1 [3]; L18-MDP 100 μg/mL, drug 3.9-350 μM, read-out: IC50, inhibition of NLRP1-mediated inflammasome activity) was 30 µM and the “NLRC4 (Flagellin)-mediated inflammasome activation” value (NLRC4) was “no effect”. The “poly I:C NLRP1 activation (IL-1β secretion)” value (NLRP1 [4]) was “inhibited poly I:C NLRP1 activation”, the IC50 (NLRP3) was 30 µM and the “NLRP3 (Nigericin, MSU, Silica)-induced inflammasome activation” value (NLRP3; BT032 20, 100 μM, MCC950 5 μM, secreted IL-1β) was “dose-dependently inhibited”. For the same molecule, the “potency in reducing IL-1β secretion compared with control probenecid compounds” value (NLRP3 inflammasome) was “more potent than the control probenecid compounds”, the survival of mice ([5]; […], survival without treatment 5 days) was 7-9 days post-infection and the “pulmonary inflammation and cellular infiltrates in BAL (total cells, alveolar macrophages, neutrophils, Ly6C+ macrophages, dendritic cells, MCP-1)” value ([5]; mouse, in vivo) was “reduce hyperinflammation in the airways”. The “non-canonical inflammasome activity (LPS (B4))” value [6] was “limited impact”.
With `CCCN(CCC)S(=O)(=O)c1ccc(N2CCC(CCCC(=O)O)CC2)cc1` [BT135, 4-(1-(4-(N,N-dipropylsulfamoyl)-phenyl)piperidin-4-yl)butanoic acid] the “NLRP1 … (secreted IL-1β)” value (NLRP1 [1]) was “dose-dependently inhibited”.
In the case of `CC(C)(O)c1coc(S(=O)(=O)NC(=O)Nc2c3c(cc4c2CCC4)CCC3)c1` [MCC950, reference compound], the “NLRP1 (L18-MDP)-induced inflammasome activation” value (NLRP1 [3]) is reported as “no impact upon NLRP1 activity”.
